Experimental data from PMC11995216, “End-to-End Backbone Cyclization Enhances Passive Permeability of bRo5 Oligomeric Depsipeptides with Nonlinear Size Dependence” (ACS Medicinal Chemistry Letters, 2025).
Several values for one entry are separate records, joined by “and”; a condition that tells them apart may be missing. Equal entries are not always repeated. Where two headings read alike, the source gives them in different places. Starred links: 1 amine or outer side, 2 acyl side, 3 side chain; linkers in the order of their positions; H or OH if unused. Non-standard residues stand in square brackets, D forms with d. Residues, ends and D or L forms follow the SMILES beside them. *: point of attachment. X1 = CCCCC[C@H](O[*:1])C(=O)[*:2]; Ahp(2) = CCCCC[C@H](N)C(=O)O; dNMeA = CN[C@H](C)C(=O)O; Boc = CC(C)(C)OC(=O)*; OBn = c1ccc(CO*)cc1

Assays:
[1] = initial concentration 500 uM, UV detection
[2] = PAMPA
[3] = PAMPA; remark: listed apart in the source
PAMPA [4] = details: UV detection
[5] = UV detection
[6] = calculated using Supplement Equation 1, UV detection
PAMPA [7] = details: UV detection, initial concentration 500 uM

LogPapp [2]: -5.48 ± 0.04
Δ % diffusion [2]: ↑10%
Papp [3]: 3.32 ± 0.31 ×10⁻⁶ cm/s
Papp (PAMPA [4]; Papp (x 10^-6 cm/s) / [row 1]): 3.76 ×10⁻⁶ cm/s
Papp (PAMPA [4]; Papp (x 10^-6 cm/s) / [row 2]): 3.12 ×10⁻⁶ cm/s
Papp (PAMPA [4]; Papp (x 10^-6 cm/s) / [row 3]): 3.36 ×10⁻⁶ cm/s
Papp (PAMPA [4]; Papp (x 10^-6 cm/s) / [row 4]): 3.52 ×10⁻⁶ cm/s
Papp (PAMPA [4]; Papp (x 10^-6 cm/s) / [row 5]): 3.88 ×10⁻⁶ cm/s
Papp (PAMPA [4]; Papp (x 10^-6 cm/s) / [row 6]): 3.19 ×10⁻⁶ cm/s
Papp (PAMPA [4]; Papp (x 10^-6 cm/s) / [row 7]): 3.05 ×10⁻⁶ cm/s
Papp (PAMPA [4]; Papp (x 10^-6 cm/s) / [row 8]): 2.93 ×10⁻⁶ cm/s
Papp (PAMPA [4]; Papp (x 10^-6 cm/s) / [row 9]): 3.14 ×10⁻⁶ cm/s
Papp (PAMPA [4]; Papp (x 10^-6 cm/s) / [row 10]): 3.2 ×10⁻⁶ cm/s
% recovery ([5]; Well 1 / %R, Well 1): 96% and 88%
% recovery ([5]; Well 2 / %R, Well 2): 91% and 90%
% recovery ([5]; Well 4 / %R, Well 4): 92% and 88%
% recovery ([5]; Well 5 / %R, Well 5): 87% and 85%
%T ([6]; Well 1 / %T, Well 1): 0.55% and 0.49%
%T ([6]; Well 2 / %T, Well 2): 0.56% and 0.52%
%T ([6]; Well 3 / %T, Well 3): 0.52% and 0.55%
%T ([6]; Well 4 / %T, Well 4): 0.5% and 0.53%
%T ([6]; Well 5 / %T, Well 5): 0.54% and 0.53%
Compound: CCCCC[C@H](NC(=O)[C@@H](C)N(C)C(=O)[C@H](CCCCC)OC(=O)[C@@H](C)N(C)C(=O)[C@H](CCCCC)NC(=O)[C@@H](C)N(C)C(=O)[C@H](CCCCC)OC(=O)[C@@H](C)N(C)C(=O)OC(C)(C)C)C(=O)OCc1ccccc1 [Compound L2.3] (Boc-[dNMeA][X1][dNMeA][Ahp(2)][dNMeA][X1][dNMeA][Ahp(2)]-OBn)
donor concentration after incubation ([1]; Well 1 / [donor], Well 1): 388 µM and 369 µM
donor concentration after incubation ([1]; Well 2 / [donor], Well 2): 382 µM and 380 µM
donor concentration after incubation ([1]; Well 3 / [donor], Well 3): 369 µM and 377 µM
donor concentration after incubation ([1]; Well 4 / [donor], Well 4): 380 µM and 370 µM
donor concentration after incubation ([1]; Well 5 / [donor], Well 5): 353 µM and 358 µM
Acceptor Concentration (PAMPA [7]; Acceptor Concentration (uM) / [row 1]): 89.6 µM
Acceptor Concentration (PAMPA [7]; Acceptor Concentration (uM) / [row 2]): 71.9 µM
Acceptor Concentration (PAMPA [7]; Acceptor Concentration (uM) / [row 3]): 75.1 µM
Acceptor Concentration (PAMPA [7]; Acceptor Concentration (uM) / [row 4]): 81.3 µM
Acceptor Concentration (PAMPA [7]; Acceptor Concentration (uM) / [row 5]): 83.9 µM
Acceptor Concentration (PAMPA [7]; Acceptor Concentration (uM) / [row 6]): 71.2 µM
Acceptor Concentration (PAMPA [7]; Acceptor Concentration (uM) / [row 7]): 69.7 µM
Acceptor Concentration (PAMPA [7]; Acceptor Concentration (uM) / [row 8]): 66.2 µM
Acceptor Concentration (PAMPA [7]; Acceptor Concentration (uM) / [row 9]): 69.9 µM
Acceptor Concentration (PAMPA [7]; Acceptor Concentration (uM) / [row 10]): 69 µM
